Measurements: article PMC11280475, “Investigation of Stabilized Amorphous Solid Dispersions to Improve Oral Olaparib Absorption” (Pharmaceutics, 2024)
Values after ≈ are worked out from the molar mass of the structure shown. Read-outs that look alike come from different tables or passages of the source. Each block holds one molecule with its values, some of them ahead of it.

Columns and labels:
[1] = In vitro dissolution test (USP apparatus II); assay type: physicochemical; details: 300 mL, 37 °C, 50 rpm, 150 mg OLA equivalent
Experimental: To assess the in vitro release of OLA from the solid dispersions, a dissolution test was performed under conditions similar to those described in Section 2.3. Briefly, the dissolution media were adjusted to pH 1.2 and pH 6.8 (300 mL each), with the temperature maintained at 37 ± 0.5 °C, and the test was conducted at a paddle speed of 50 rpm. Each sample of the OLA-SD, equivalent to 150 mg of OLA, was immersed in the dissolution media. Additionally, to examine the effect of polymers in the solid dispersion, a parallel dissolution test was conducted with 150 mg each of crystalline OLA and amorphous OLA. As mentioned, the solution was sampled at predetermined times (1, 6, 12, 18, 24, 48, and 72 h) and the concentration of OLA was assessed using an HPLC system. Additionally, after the kinetic dissolution tests in the pH 1.2 solution, the solution was centrifuged, the supernatant was removed, and the remaining OLA-SD residue was dried overnight for 12 h. The crystallinity state of the dried OLA-SD was examined using an X-ray diffractometer. The detailed method is described in Section 2.6.3.

[2] = In vivo pharmacokinetic study after oral administration; design: species or system Sprague Dawley (SD) rats; details: rats, 20 mg/kg; for AUC(0-t): read-out: AUC0–24
Experimental: Male Sprague Dawley (SD) rats (age: 9–10 weeks, weight: 250 ± 20 g) for the in vivo pharmacokinetic study of OLA-SD were purchased from Koatech Co. (Pyeongtaek, Republic of Korea). The rats were acclimatized to standard laboratory conditions (average temperature of 25 ± 2 °C and a 12/12 h light/dark cycle) for one week before the experiment, with unrestricted access to food and drinking water ad libitum. The Institutional Animal Care and Use Committee (IACUC) of Gyeongsang National University (Approval No. GNU-240228-R0049) approved the animal study protocol in accordance with NIH policies and the Animal Welfare Act. The SD rats were randomly divided into four groups, each consisting of six rats. Each rat was anesthetized, and the right femoral artery was cannulated using a polyethylene tube. Crystalline OLA, amorphous OLA, Kollidon VA64-based OLA-SD (F1), and HPMC P645-based OLA-SD (F3) were dispersed in 1 mL of 0.5% carboxymethyl cellulose and administered orally to the rats at a dose of 20 mg/kg. Blood (350 μL) was collected through the cannulated tube at 0.25, 0.5, 1, 2, 3, 6, 9, 12, and 24 h and immediately centrifuged at 13,500 rpm for 15 min at 4 °C. Subsequently, plasma was separated from the supernatant and stored at −20 °C until quantitative analysis. To analyze the plasma samples, 50 μL of internal standard solution (canagliflozin 20 μg/mL in acetonitrile) and 300 μL of acetonitrile were added to 150 μL of plasma. The samples were then mixed in a vortex blender for 3 min for deproteinization and drug extraction. Subsequently, the samples were centrifuged at 13,500 rpm for 15 min at 4 °C. The supernatant was filtered using a 0.2 μm filter and transferred to analytical vials for HPLC analysis. The concentration of OLA in plasma was analyzed using the second HPLC conditions mentioned in Section 2.2. Pharmacokinetic parameters calculated using non-compartmental analysis included the area under the plasma concentration–time curve from 0 to 24 h (AUC0–24), the maximum plasma concentration (Cmax), the time to reach maximum plasma concentration (Tmax), the elimination rate constant (Kel), the half-life (T1/2), and the mean residence time (MRT).
The formula for calculating AUC is as follows: AUC=∑i=1n−1(Ci+Ci+1)/2×[…] where Ci and Ci+1 are the concentration of the drug at consecutive time points, ti and ti+1 are the corresponding time points, and n is the number of measured data points.
The formula for calculating Cmax is as follows: Cmax=max(Ct) where Ct is the concentration of the drug at time t.
The formula for calculating Tmax is Tmax=t at which Ct is maximal
The formula for calculating Kel is […] where C1 and C2 are the concentration of the drug at two consecutive time points during the elimination phase, and t1 and t2 are the corresponding time points.
The formula for calculating T1/2 is T1/2=ln2/Kel where Kel is the elimination rate constant.
The formula for calculating MRT is MRT=AUMC/AUC where AUMC is the area under the moment curve and AUC is the area under the curve.

[3] = Kinetic solubility of OLA in 1% (w/v) polymer solutions; assay type: physicochemical; details: thermodynamic from solid, amorphous OLA
Experimental: (§1) The polymers used to select the appropriate polymer for OLA-SD were chosen from those widely utilized in solid dispersions. To select the polymers for the solid dispersion system, the solubility of OLA in 1% (w/v) polymer solutions was assessed. Initially, 10 mg of crystalline OLA was added to 1 mL of each polymer solution, vortexed for 10 min, and then shaken at 100 rpm in a 37 °C water bath for 72 h. This process followed the saturation solubility evaluation method described in Section 2.3. Subsequently, to evaluate the kinetic solubility of OLA, both crystalline and amorphous forms, totaling 10 mg, were added to 10 mL of the selected polymer solutions, based on the results of the OLA saturation solubility tests. After vortexing for 10 min, the samples were shaken under the same conditions. During this 72 h period, samples were collected at predetermined intervals of 1, 6, 12, 24, 48, and 72 h, and the concentration of OLA was measured through HPLC analysis.

[4] = Saturation solubility of OLA in aqueous solutions; assay type: physicochemical; details: pH 1.2, pH 4.0, pH 6.8, regardless of pH, 37 °C
Experimental: The solubility of OLA was evaluated in distilled water (D.W.), pH 1.2, pH 4.0, and pH 6.8 solutions. The pH 1.2 solution was prepared using 0.1 M hydrochloric acid and sodium chloride, while the pH 4.0 solution utilized a 0.05 M sodium acetate buffer solution, and the pH 6.8 solution was made by combining a 0.2 M potassium dihydrogen phosphate solution with a 0.2 M sodium hydroxide solution. To determine the saturation solubility, an excess amount of both crystalline OLA and amorphous OLA, totaling 10 mg each, was added to 1 mL of each solution. The mixtures were vortexed for 10 min and then shaken at 100 rpm in a 37 °C water bath for 72 h. After centrifugation at 13,500 rpm for 10 min, the supernatant was filtered through a 0.45 μm syringe filter to remove insoluble OLA. The resultant solution was diluted tenfold with the HPLC mobile phase, and the concentration of OLA in each solution was measured using the HPLC system mentioned in Section 2.2. Subsequently, to assess the kinetic solubility of OLA, a dissolution test was conducted using 150 mg of both crystalline and amorphous OLA in 900 mL of each aforementioned solution. […] Samples (3 mL) were taken at predetermined times (0.5, 1, 2, 3, 4, 6, 12 h), filtered through a 0.45 μm syringe filter, diluted tenfold with the HPLC mobile phase, and analyzed using the same HPLC system. […]

[5] = cited from earlier work
[6] = Saturation solubility of crystalline OLA in 1% (w/v) polymer solutions; assay type: physicochemical; details: 37 °C
Experimental: as §1

[7] = male, Sprague Dawley, rat, plasma, po, mean ± S.D. (n = 6)

dissolution rate ([1]; pH 1.2, 1 h): 43.4 ± 3.3%
dissolution rate ([1]; pH 1.2, 72 h): 28.2 ± 3.9%
dissolution rate ([1]; pH 6.8, 1 h): 44.6 ± 3.1%
dissolution rate ([1]; pH 6.8, 72 h): 27.0 ± 3.0%
AUC0–24 [2]: 471 ± 150 ng·h/mL
Cmax [2]: 415 ± 148 ng/mL
increase of AUC0–24 over crystalline OLA ([2]; compared to crystalline OLA): 1.27 fold
increase of Cmax over crystalline OLA ([2]; compared to crystalline OLA): 2.22 fold
AUC0–24 ([2]; mean ± S.D. (n = 6)): 471.40 ± 150.17 ng·h/mL
Cmax ([2]; mean ± S.D. (n = 6)): 415.24 ± 148.20 ng/mL
Kel ([2]; mean ± S.D. (n = 6)): 0.20 ± 0.05 h⁻¹
MRT ([2]; mean ± S.D. (n = 6)): 4.28 ± 4.52 h
T1/2 ([2]; mean ± S.D. (n = 6)): 3.68 ± 1.04 h
Tmax ([2]; mean ± S.D. (n = 6)): 17.4 ± 6 min
solubility kinetic at 1 h ([3]; 1% (w/v) HP-β-CD solution, aqueous with cosolvent or surfactant or cyclodextrin, 1% (w/v) HP-β-CD, 37 °C, read-out: kinetic solubility in HP-β-CD at 1 h): 337 ± 29.7 µg/mL (≈ 775 µM)
solubility kinetic at 72 h ([3]; 1% (w/v) HP-β-CD solution, aqueous with cosolvent or surfactant or cyclodextrin, 1% (w/v) HP-β-CD, 37 °C, read-out: kinetic solubility in HP-β-CD at 72 h): 398 ± 10.9 µg/mL (≈ 916 µM)
solubility kinetic at 1 h ([3]; 1% (w/v) HPMC P645 solution, 1% (w/v) HPMC P645, 37 °C, read-out: kinetic solubility in HPMC P645 at 1 h): 247 ± 43.6 µg/mL (≈ 569 µM)
solubility kinetic at 72 h ([3]; 1% (w/v) HPMC P645 solution, 1% (w/v) HPMC P645, 37 °C, read-out: kinetic solubility in HPMC P645 at 72 h): 353 ± 44.2 µg/mL (≈ 813 µM)
solubility kinetic at 1 h ([3]; 1% (w/v) Kollidon VA64 solution, 1% (w/v) Kollidon VA64, 37 °C, read-out: kinetic solubility in Kollidon VA64 at 1 h): 593 ± 72.9 µg/mL (≈ 1360 µM)
solubility kinetic at 72 h ([3]; 1% (w/v) Kollidon VA64 solution, 1% (w/v) Kollidon VA64, 37 °C, read-out: kinetic solubility in Kollidon VA64 at 72 h): 343 ± 6.5 µg/mL (≈ 790 µM)
saturation solubility ([4]; 72 h): around 100 µg/mL
Compound: O=C(c1cc(Cc2n[nH]c(=O)c3ccccc23)ccc1F)N1CCN(C(=O)C2CC2)CC1 [Amorphous OLA, olaparib]

solubility at 72 h ([6]; crystalline OLA in 1% (w/v) HP-β-CD solution, read-out: saturation solubility in HP-β-CD): ~180 µg/mL (≈ 414 µM)
solubility at 72 h ([6]; crystalline OLA in 1% (w/v) polymer solutions other than HP-β-CD, read-out: saturation solubility in most other polymer solutions): < 150 µg/mL
half-life [2, 7]: 251 ± 136 min
k el [2, 7]: 5.28e-05 s⁻¹
AUC(0-t) [2, 7]: 370 ± 63.8 ng·h/mL
MRT ([2]; male, Sprague Dawley, rat, plasma, po, mean ± S.D. (n = 6), read-out: MRT): 2.97 ± 0.69 h
AUC(0-t) ([2]; male, Sprague Dawley, rat, plasma, po): 370 ± 63.8 ng·h/mL
Cmax [2]: 187 ± 82.5 ng/mL
Cmax ([2]; mean ± S.D. (n = 6)): 187.31 ± 82.55 ng/mL
Tmax ([2]; mean ± S.D. (n = 6)): 37.8 ± 18.6 min
solubility at 72 h ([4]; aqueous pH solutions): ~100 µg/mL (≈ 230 µM)
Compound: O=C(c1cc(Cc2n[nH]c(=O)c3ccccc23)ccc1F)N1CCN(C(=O)C2CC2)CC1 [Crystalline OLA, olaparib]
solubility in aqueous solution ([5]; aqueous solution): approximately 0.1 mg/mL
basic pKa [5]: −1.25
Biopharmaceutics Classification System (BCS) class ([5]; low solubility and low permeability): class IV
